We go through four molecules from patent publication US9512161B2, “Hydroxyl, keto, and glucuronide derivatives of 3-(4-(7H-pyrrolo[2,3-D]pyrimidin-4-yl)-1H-pyrazol-1-yl)-3-cyclopentylpropanenitrile” (Incyte Corporation, priority 2009, dated 2016).

Molecules are shown by their SMILES.

This data set in a line: Metabolite profiling of plasma and urine from human subjects after administration of Compound I (HPLC-MS). To be noted: human subjects dosed with Compound I; LC-MS detection. The data set is classed as in vivo. The protocol:
Metabolites 1-39 were isolated from human, rat or dog urine, plasma, or feces after administration of Compound I in connection with pharmacokinetic and toxicokinetic studies. The identity of the metabolites were determined after isolation of the metabolite using HPLC methods. Tandem MS/MS analysis and higher order MS^n experiments were conducted as required to elucidate structural information.
Plasma samples from all subjects were pooled by subject and/or by time point. The pooled plasma samples were prepared for HPLC-Radiometric analysis as follows: Aliquots of the pooled plasma samples were initially extracted with approximately two equivalent (W/V) volumes of 1% formic acid in HPLC-grade acetonitrile, followed by vigorous vortexing, and centrifugation to remove denatured plasma proteins. The supernatant was reserved and passed through a pre-conditioned Waters C-18 Solid phase extraction cartridge, and the filtrate retained. The SPE cartridge was retained. The remaining plasma pellet was then extracted three times with 1% formic acid in HPLC-grade acetonitrile/water (90/10), with centrifugation after each extraction. All supernatants were reserved. Each formic acid/acetonitrile/water extraction supernatant was used to elute the SPE cartridge. The SPE cartridge was then rinsed with 1% formic acid in methanol. All eluants were retained, combined, and evaporated under a stream of nitrogen at 30° C. The remainder of this extraction was reconstituted in approximately 0.6 ml of 0.1% formic acid in water, vortexed and centrifuged to remove particulate matter. The supernatant was then analyzed by HPLC-Flow Radiometry and HPLC-MS.
Aliquots of approximately equal amounts of urine from each of the subjects were pooled to represent appropriate time intervals post-dose. Prior to HPLC-Radiometric analysis, each pooled urine sample was centrifuged at 4,000 rpm for 10 min to remove particulate matter, then analyzed directly.
All samples were analyzed by either HPLC-Flow radiometry or HPLC-MS using analytical systems that were as identical as practicable. The HPLC-Flow Radiometry system consisted of an Agilent HP 1100 series Quaternary pump, Autosampler, and UV detector interfaced with a Raytest Ramona-90 flow scintillation detector with a 500 μL liquid scintillation cell. […] Mobile phase “A” consisted of 0.1% formic acid in HPLC-grade water, with mobile phase “B” consisting of HPLC-grade methanol/acetonitrile (1:1). Elution of analytes was achieved through use of a linear increasing gradient of mobile phase “B”. Two different gradient elution methods were employed at various times as needed. Chromatographic conditions for these two methods are outlined below in Tables 3 and 4. […]
Turning to `N#CCC(C1CCCC1)n1cc(-c2nc(O)nc3c2C(=O)CN3)cn1` (stereo not shown) [Compound 32, 3-cyclopentyl-3-(4-(2-hydroxy-5-oxo-6,7-dihydro-5H-pyrrolo[2,3-d]pyrimidin-4-yl)-1H-pyrazol-1-yl)propanenitrile], the “Matrix in which the metabolite was observed/found” value is “plasma and urine”.
As for `N#CCC(C1CCCC1)n1cc(-c2ncnc3c2C(O)C(O)N3)cn1` (stereo not shown) [Compound 40, 3-cyclopentyl-3-(4-(5,6-dihydroxy-6,7-dihydro-5H-pyrrolo[2,3-d]pyrimidin-4-yl)-1H-pyrazol-1-yl)propanenitrile], the “Matrix in which the metabolite was observed/found” value is “plasma and urine”.
Regarding `N#CCC(C1CCCC1)n1cc(-c2ncnc3c2ccn3C2OC(C(=O)O)C(O)C(O)C2O)cn1` (stereo not shown) [Compound 41, 6-(4-(1-(2-cyano-1-cyclopentylethyl)-1H-pyrazol-4-yl)-7H-pyrrolo[2,3-d]pyrimidin-7-yl)-3,4,5-trihydroxytetrahydro-2H-pyran-2-carboxylic acid], the “Matrix in which the metabolite was observed/found” value is listed as “urine”.
To `N#CCC(C1CCCC1)n1cc(-c2[nH]c(=O)nc3c2CC(=O)N3)cn1` (stereo not shown) [Compound 31, 3-cyclopentyl-3-(4-(2,6-dioxo-3,5,6,7-tetrahydro-2H-pyrrolo[2,3-d]pyrimidin-4-yl)-1H-pyrazol-1-yl)propanenitrile] belongs “urine”.
